Data taken from US8519149B2, “Tricyclic compounds as mPGES-1 inhibitors” (Glenmark Pharmaceuticals S.A., priority 2010, dated 2013).

Target: T1, Recombinant human mPGES-1 (Homo sapiens, UniProt O14684)
T1 sequence (O14684 1-152): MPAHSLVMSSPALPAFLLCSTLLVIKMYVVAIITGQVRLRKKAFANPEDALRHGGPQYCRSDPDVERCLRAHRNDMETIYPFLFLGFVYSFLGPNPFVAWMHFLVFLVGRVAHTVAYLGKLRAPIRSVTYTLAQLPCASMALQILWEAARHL
Assay: In-vitro mPGES-1 enzyme inhibition assay (PGE2 formation from PGH2, HTRF detection)
Format: biochemical
Settings: for inhibition at 1 µM: 1 μM test compound, read-out: Percentage inhibition at 1 μM; for inhibition at 1 µM / inhibition at 10 µM: recombinant human mPGES-1 microsomal fraction; for inhibition at 10 µM: 10 μM test compound, read-out: Percentage inhibition at 10 μM; for IC50: class symbols, selected examples
Method in brief: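 IC50 values were derived by nonlinear regression of percent inhibition relative to enzyme reactions run without inhibitor. PGE2 formed from PGH2 with GSH was quantified by antibody-based HTRF after stannous chloride quench. Enzyme source was human mPGES-1 microsomes at 40-60 μg/mL protein; DMSO 0.5% (v/v).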

With `Cc1nc2c(o1)c(C(=O)NC1CCC(F)(F)CC1)cc1nc(Nc3c(Cl)cccc3Cl)[nH]c12` [Example-189, 7-[(2,6-Dichlorophenyl)amino]-N-(4,4-difluorocyclohexyl)-2-methyl-8H-imidazo[4,5-e][1,3]benzoxazole-4-carboxamide] the inhibition at 1 µM was 53.9% and the inhibition at 10 µM was 91.1%.
Compound `CC1(C)Cc2c(c(C(=O)Nc3c(F)cccc3F)cc3nc(Nc4c(Cl)cccc4Cl)[nH]c23)O1` [Example-76, 2-[(2,6-Dichlorophenyl)amino]-N-(2,6-difluorophenyl)-7,7-dimethyl-7,8-dihydro-1H-furo[3,2-e]benzimidazole-5-carboxamide] has an inhibition at 1 µM of 95.8%, an inhibition at 10 µM of 99.6% and an IC50 of less than 50 nM.
In the case of `CC1(C)Cc2c(c(C(=O)Nc3ccc(C(F)(F)F)c[n+]3[O-])cc3nc(Nc4c(F)cccc4Cl)[nH]c23)O1` [Example-158, 2-(2-((2-Chloro-6-fluorophenyl)amino)-7,7-dimethyl-7,8-dihydro-1H-benzofuro[4,5-d]imidazole-5-carboxamido)-5-(trifluoromethyl)pyridine 1-oxide], the inhibition at 1 µM is reported as 77% and the inhibition at 10 µM is reported as 97.4%.
`CC1(C)Cc2c(c(C(=O)NC34CC5CC(CC(C5)C3)C4)cc3nc(Nc4c(Cl)cncc4Cl)[nH]c23)O1` [Example-19, N-Adamantan-1-yl-2-[(3,5-dichloropyridin-4-yl)amino]-7,7-dimethyl-7,8-dihydro-1H-furo[3,2-e]benzimidazole-5-carboxamide] gave an inhibition at 1 µM of 97.8%, an inhibition at 10 µM of 98.3% and an IC50 of less than 50 nM.
Work on `Cc1ccc(Nc2nc3cc(C(=O)Nc4ccc(C(F)(F)F)cc4)c4c(c3[nH]2)CC(C)(C)O4)c(C)n1` [Example-103, 2-[(2,6-Dimethylpyridin-3-yl)amino]-7,7-dimethyl-N-[4-(trifluoromethyl)phenyl]-7,8-dihydro-1H-furo[3,2-e]benzimidazole-5-carboxamide] yielded an inhibition at 1 µM of 7.88% and an inhibition at 10 µM of 25.8%.
For `Cc1cccc(Cl)c1Nc1nc2cc(C(=O)NC3(c4cccc(C(F)(F)F)c4)CC3)c3c(c2[nH]1)CC(C)(C)O3` [Example-132, 2-((2-Chloro-6-methylphenyl)amino)-7,7-dimethyl-N-(1-(3-(trifluoromethyl)phenyl)cyclopropyl)-7,8-dihydro-1H-benzofuro[4,5-d]imidazole-5-carboxamide], the inhibition at 1 µM was 92.4%, the inhibition at 10 µM was 98% and the IC50 was less than 50 nM.
`Cn1c(Nc2c(Cl)cncc2Cl)nc2cc(C(=O)Nc3ccc(F)c(C(F)(F)F)c3)c3c(c21)CC(C)(C)O3` [Example-213, 2-((3,5-Dichloropyridin-4-yl)amino)-N-(4-fluoro-3-(trifluoromethyl)phenyl)-1,7,7-trimethyl-7,8-dihydro-1H-benzofuro[4,5-d]imidazole-5-carboxamide] was tested, and the inhibition at 1 µM was 96.3% and the inhibition at 10 µM was 97.3%.
Compound `Cc1ccc(Nc2nc3cc(C(=O)Nc4ccc(C(F)(F)F)cc4)c4c(c3[nH]2)CC(C)(C)O4)c(Cl)c1` [Example-87, 2-[(2-Chloro-4-methylphenyl)amino]-7,7-dimethyl-N-[4-(trifluoromethyl)phenyl]-7,8-dihydro-1H-furo[3,2-e]benzimidazole-5-carboxamide] has an inhibition at 1 µM of 87.4%, an inhibition at 10 µM of 92.2% and an IC50 of less than 50 nM.
With `CC1(C)Cc2c(c(C(=O)Nc3ccc(F)c(C(F)(F)F)c3)cc3nc(Nc4c(F)cccc4Cl)[nH]c23)O1` [Example-104, 2-[(2-Chloro-6-fluorophenyl)amino]-N-[4-fluoro-3-(trifluoromethyl)phenyl]-7,7-dimethyl-7,8-dihydro-1H-furo[3,2-e]benzimidazole-5-carboxamide] the inhibition at 1 µM was 100%, the inhibition at 10 µM was 92% and the IC50 was less than 50 nM.
`CC(C)c1ccc(NC(=O)c2cc3nc(Nc4c(Cl)cccc4Cl)[nH]c3c3c2OC(C)(C)C3)cc1` [Example-90, 2-[(2,6-Dichlorophenyl)amino]-7,7-dimethyl-N-[4-(propan-2-yl)phenyl]-7,8-dihydro-1H-furo[3,2-e]benzimidazole-5-carboxamide] showed an inhibition at 1 µM of 97.7%, an inhibition at 10 µM of 98.4% and an IC50 of less than 50 nM.
With `Cc1cc2c(o1)c(C(=O)NC1CCCCC1)cc1nc(Nc3ccccc3Cl)[nH]c12` [Example-16, 2-[(2-Chlorophenyl)amino]-N-cyclohexyl-7-methyl-1H-furo[3,2-e]benzimidazole-5-carboxamide] the inhibition at 1 µM was 73.5% and the inhibition at 10 µM was 94.9%.
`CC1(C)Cc2c(c(C(=O)Nc3ccc(F)cc3)cc3nc(Nc4c(Cl)cncc4Cl)[nH]c23)O1` [Example-24, 2-[(3,5-Dichloropyridin-4-yl)amino]-N-(4-fluorophenyl)-7,7-dimethyl-7,8-dihydro-1H-furo[3,2-e]benzimidazole-5-carboxamide] was tested, and the inhibition at 1 µM was 95.3%, the inhibition at 10 µM was 95% and the IC50 was less than 50 nM.
Compound `O=C(Nc1cc(C(F)(F)F)ccc1F)c1cc2nc(Nc3c(F)cccc3Cl)[nH]c2c2nc(C3CC3)oc12` [Example-185, 7-((2-Chloro-6-fluorophenyl)amino)-2-cyclopropyl-N-(2-fluoro-5-(trifluoromethyl)phenyl)-8H-imidazo[4′,5′:5,6]benzo[1,2-d]oxazole-4-carboxamide] has an inhibition at 1 µM of 94.4%, an inhibition at 10 µM of 98.5% and an IC50 of less than 50 nM.
With `Cn1c(Nc2c(F)cccc2Cl)nc2cc(C(=O)Nc3ccc(C(F)(F)F)c[n+]3[O-])c3c(c21)CC(C)(C)O3` [Example-155, 2-(2-((2-Chloro-6-fluorophenyl)amino)-1,7,7-trimethyl-7,8-dihydro-1H-benzofuro[4,5-d]imidazole-5-carboxamido)-5-(trifluoromethyl)pyridine 1-oxide] the inhibition at 1 µM was 87.9%, the inhibition at 10 µM was 99.8% and the IC50 was greater than 100 nM.
Compound `CCCCCNC(=O)c1cc2nc(Nc3c(Cl)cncc3Cl)[nH]c2c2c1OC(C)(C)C2` [Example-4, 2-[(3,5-Dichloropyridin-4-yl)amino]-7,7-dimethyl-N-pentyl-7,8-dihydro-1H-furo[3,2-e]benzimidazole-5-carboxamide] has an inhibition at 1 µM of 94.4%, an inhibition at 10 µM of 95% and an IC50 of less than 50 nM.
`Cn1c(Nc2c(Cl)cncc2Cl)nc2cc(C(=O)Nc3cc(C(F)(F)F)ccc3F)c3c(c21)CC(C)(C)O3` [Example-218, 2-((3,5-Dichloropyridin-4-yl)amino)-N-(2-fluoro-5-(trifluoromethyl)phenyl)-1,7,7-trimethyl-7,8-dihydro-1H-benzofuro[4,5-d]imidazole-5-carboxamide] showed an inhibition at 1 µM of 99.4% and an inhibition at 10 µM of 100%.
For `CC1(C)Cc2c(c(C(=O)N3CCOCC3)cc3nc(Nc4c(Cl)cncc4Cl)[nH]c23)O1` [Example-20, {2-[(3,5-Dichloropyridin-4-yl)amino]-7,7-dimethyl-7,8-dihydro-1H-furo[3,2-e]benzimidazol-5-yl}(morpholin-4-yl)methanone], the inhibition at 1 µM was 10.5% and the inhibition at 10 µM was 44.9%.
`CC1(C)Cc2c(c(C(=O)NCc3ccccc3C(F)(F)F)cc3nc(Nc4c(Cl)cncc4Cl)[nH]c23)O1` [Example-2, 2-[(3,5-Dichloropyridin-4-yl)amino]-7,7-dimethyl-N-[2-(trifluoromethyl)benzyl]-7,8-dihydro-1H-furo[3,2-e]benzimidazole-5-carboxamide] was tested, and the inhibition at 1 µM was 97%, the inhibition at 10 µM was 99.6% and the IC50 was less than 50 nM.
`Cc1cc2c(o1)c(C(=O)NC(C)(C)CC(C)(C)C)cc1nc(Nc3c(Cl)cncc3Cl)[nH]c12` [Example-34, 2-[(3,5-Dichloropyridin-4-yl)amino]-7-methyl-N-(2,4,4-trimethylpentan-2-yl)-1H-furo[3,2-e]benzimidazole-5-carboxamide] showed an inhibition at 1 µM of 95.5%, an inhibition at 10 µM of 98.7% and an IC50 of less than 50 nM.
`CC(C)(C)c1ccc(NC(=O)c2cc3nc(Nc4c(Cl)cccc4Cl)[nH]c3c3nc(C4CC4)oc23)cc1` [Example-184, N-(4-tert-Butylphenyl)-2-cyclopropyl-7-[(2,6-dichlorophenyl)amino]-8H-imidazo[4,5-e][1,3]benzoxazole-4-carboxamide] gave an inhibition at 1 µM of 96.9%, an inhibition at 10 µM of 95.9% and an IC50 of less than 50 nM.
In the case of `CC1(C)Cc2c(c(C(=O)Nc3ccc(C(F)(F)F)cc3F)cc3nc(Nc4c(F)cccc4Cl)[nH]c23)O1` [Example-112, 2-[(2-Chloro-6-fluorophenyl)amino]-N-[2-fluoro-4-(trifluoromethyl)phenyl]-7,7-dimethyl-7,8-dihydro-1H-furo[3,2-e]benzimidazole-5-carboxamide], the inhibition at 1 µM is reported as 96.8%, the inhibition at 10 µM is reported as 96.2% and the IC50 is reported as less than 50 nM.
With `CC1(C)Cc2c(c(C(=O)NC3(c4ccc(C(F)(F)F)cc4)CC3)cc3nc(Nc4c(F)cccc4Cl)[nH]c23)O1` [Example-116, 2-[(2-Chloro-6-fluorophenyl)amino]-7,7-dimethyl-N-{1-[4-(trifluoromethyl)phenyl]cyclopropyl}-7,8-dihydro-1H-furo[3,2-e]benzimidazole-5-carboxamide] the inhibition at 1 µM was 96.9%, the inhibition at 10 µM was 99.8% and the IC50 was less than 50 nM.
`Cc1ccc(Cl)c(Nc2nc3cc(C(=O)Nc4cccc(C(F)(F)F)c4)c4c(c3[nH]2)CC(C)(C)O4)c1` [Example-123, 2-[(2-Chloro-5-methylphenyl)amino]-7,7-dimethyl-N-[3-(trifluoromethyl)phenyl]-7,8-dihydro-1H-furo[3,2-e]benzimidazole-5-carboxamide] gave an inhibition at 1 µM of 91.1%, an inhibition at 10 µM of 98.9% and an IC50 of less than 50 nM.
Work on `Cc1cc2c(o1)c(C(=O)NCc1ccccc1C(F)(F)F)cc1nc(Nc3c(Cl)cccc3Cl)[nH]c12` [Example-85, 2-[(2,6-Dichlorophenyl)amino]-7-methyl-N-[2-(trifluoromethyl)benzyl]-1H-furo[3,2-e]benzimidazole-5-carboxamide] yielded an inhibition at 1 µM of 93.3%, an inhibition at 10 µM of 95.4% and an IC50 of 50 to 100 nM.
